Data on 5 compounds can be found in ChEMBL document CHEMBL1151989, “Antineoplastic agents. 578. Synthesis of stilstatins 1 and 2 and their water-soluble prodrugs” (J Nat Prod, 2009).

In the first data set the test system is BXPC-3. Briefly: Antitumor activity against human BxPC3 cells by sulforhodamine B assay. The class given is functional.
Details: not given
On the technique in general: In SRB staining, fixed cells bind dye roughly in proportion to their protein.
The compound `COc1cc(/C=C\c2ccc(OC)c(O[Si](C)(C)C(C)(C)C)c2O[Si](C)(C)C(C)(C)C)cc2c1OCO2` registered a GI50 of over 10 µg/mL.

`COc1cc(/C=C\c2ccc(OC)c(OP(=O)([O-])[O-])c2OP(=O)([O-])[O-])cc2c1OCO2.[K+].[K+].[K+].[K+]`: the GI50 was found to be 5.3 µg/mL.

`COc1cc(/C=C\c2ccc(OC)c(OP(=O)([O-])[O-])c2OP(=O)([O-])[O-])cc(OP(=O)([O-])[O-])c1OC.[Mg+2].[Mg+2].[Mg+2]` yielded a GI50 of 5.9 µg/mL.

In the case of `COc1ccc(/C=C\c2cc(OC)c(OC)c(OC)c2)cc1OP(=O)([O-])[O-].[Na+].[Na+]` [FOSBRETABULIN DISODIUM], the GI50 is 0.23 µg/mL.

`COc1cc(/C=C\c2ccc(OC)c(OP(=O)([O-])[O-])c2OP(=O)([O-])[O-])cc2c1OCO2.[Na+].[Na+].[Na+].[Na+]` had a GI50 of over 10 µg/mL.

In a further data set the test system is MCF7. Briefly: Antitumor activity against human MCF7 cells by sulforhodamine B assay. The class given is functional.
Details: not given
Regarding `COc1cc(/C=C\c2ccc(OC)c(O[Si](C)(C)C(C)(C)C)c2O[Si](C)(C)C(C)(C)C)cc2c1OCO2`, the GI50 was over 10 µg/mL.

Regarding `COc1cc(/C=C\c2ccc(OC)c(OP(=O)([O-])[O-])c2OP(=O)([O-])[O-])cc2c1OCO2.[K+].[K+].[K+].[K+]`, the GI50 amounted to 0.39 µg/mL.

Take `COc1cc(/C=C\c2ccc(OC)c(OP(=O)([O-])[O-])c2OP(=O)([O-])[O-])cc(OP(=O)([O-])[O-])c1OC.[Mg+2].[Mg+2].[Mg+2]`: the GI50 worked out at 0.5 µg/mL.

As for `COc1cc(/C=C\c2ccc(OC)c(OP(=O)([O-])[O-])c2OP(=O)([O-])[O-])cc2c1OCO2.[Na+].[Na+].[Na+].[Na+]`, it took 3.4 µg/mL to inhibit growth by half (GI50).

Another data set concerns SF-268. Description: Antitumor activity against human SF268 cells by sulforhodamine B assay. The class given is functional.
Details: not given
For `COc1cc(/C=C\c2ccc(OC)c(O[Si](C)(C)C(C)(C)C)c2O[Si](C)(C)C(C)(C)C)cc2c1OCO2`, the 50% growth inhibitory concentration (GI50) was over 10 µg/mL.

`COc1cc(/C=C\c2ccc(OC)c(OP(=O)([O-])[O-])c2OP(=O)([O-])[O-])cc2c1OCO2.[K+].[K+].[K+].[K+]` yielded a GI50 of 0.65 µg/mL.

Regarding `COc1cc(/C=C\c2ccc(OC)c(OP(=O)([O-])[O-])c2OP(=O)([O-])[O-])cc(OP(=O)([O-])[O-])c1OC.[Mg+2].[Mg+2].[Mg+2]`, the GI50 worked out at 0.63 µg/mL.

In the case of `COc1cc(/C=C\c2ccc(OC)c(OP(=O)([O-])[O-])c2OP(=O)([O-])[O-])cc2c1OCO2.[Na+].[Na+].[Na+].[Na+]`, the GI50 is 2.8 µg/mL.

For a further data set, the system named is NCI-H460. Briefly: Antitumor activity against human NCI-H460 cells by sulforhodamine B assay. The class given is functional.
Details: not given
The compound `COc1cc(/C=C\c2ccc(OC)c(O[Si](C)(C)C(C)(C)C)c2O[Si](C)(C)C(C)(C)C)cc2c1OCO2` came in with a GI50 of over 10 µg/mL.

Consider `COc1cc(/C=C\c2ccc(OC)c(OP(=O)([O-])[O-])c2OP(=O)([O-])[O-])cc2c1OCO2.[K+].[K+].[K+].[K+]`, for which the GI50 amounted to 1.4 µg/mL.

Turning to `COc1cc(/C=C\c2ccc(OC)c(OP(=O)([O-])[O-])c2OP(=O)([O-])[O-])cc(OP(=O)([O-])[O-])c1OC.[Mg+2].[Mg+2].[Mg+2]`, the GI50 turned out to be 0.32 µg/mL.

`COc1ccc(/C=C\c2cc(OC)c(OC)c(OC)c2)cc1OP(=O)([O-])[O-].[Na+].[Na+]` [FOSBRETABULIN DISODIUM] showed a GI50 of 0.0004 µg/mL.

In turn, `COc1cc(/C=C\c2ccc(OC)c(OP(=O)([O-])[O-])c2OP(=O)([O-])[O-])cc2c1OCO2.[Na+].[Na+].[Na+].[Na+]` returned a GI50 of 2.8 µg/mL.

A further data set relates to KM-20L2. Briefly: Antitumor activity against human KM20L2 cells by sulforhodamine B assay. The class given is functional.
Details: not given
With `COc1cc(/C=C\c2ccc(OC)c(O[Si](C)(C)C(C)(C)C)c2O[Si](C)(C)C(C)(C)C)cc2c1OCO2`, the GI50 was over 10 µg/mL.

`COc1cc(/C=C\c2ccc(OC)c(OP(=O)([O-])[O-])c2OP(=O)([O-])[O-])cc2c1OCO2.[K+].[K+].[K+].[K+]` had a GI50 of over 10 µg/mL.

Regarding `COc1cc(/C=C\c2ccc(OC)c(OP(=O)([O-])[O-])c2OP(=O)([O-])[O-])cc(OP(=O)([O-])[O-])c1OC.[Mg+2].[Mg+2].[Mg+2]`, the GI50 is under 10 µg/mL.

Compound `COc1cc(/C=C\c2ccc(OC)c(OP(=O)([O-])[O-])c2OP(=O)([O-])[O-])cc2c1OCO2.[Na+].[Na+].[Na+].[Na+]` displayed a GI50 of over 10 µg/mL.

For the next data set, the system named is DU-145. Briefly: Antitumor activity against human DU145 cells by sulforhodamine B assay. Type of data set: functional.
Details: not given
Compound `COc1cc(/C=C\c2ccc(OC)c(O[Si](C)(C)C(C)(C)C)c2O[Si](C)(C)C(C)(C)C)cc2c1OCO2` displayed a GI50 of over 10 µg/mL.

`COc1cc(/C=C\c2ccc(OC)c(OP(=O)([O-])[O-])c2OP(=O)([O-])[O-])cc2c1OCO2.[K+].[K+].[K+].[K+]` yielded a GI50 of 0.93 µg/mL.

Compound `COc1cc(/C=C\c2ccc(OC)c(OP(=O)([O-])[O-])c2OP(=O)([O-])[O-])cc(OP(=O)([O-])[O-])c1OC.[Mg+2].[Mg+2].[Mg+2]` came in with a GI50 of 0.42 µg/mL.

Turning to `COc1ccc(/C=C\c2cc(OC)c(OC)c(OC)c2)cc1OP(=O)([O-])[O-].[Na+].[Na+]` [FOSBRETABULIN DISODIUM], growth was halved (GI50) at 0.0007 µg/mL.

`COc1cc(/C=C\c2ccc(OC)c(OP(=O)([O-])[O-])c2OP(=O)([O-])[O-])cc2c1OCO2.[Na+].[Na+].[Na+].[Na+]`: the GI50 was 2.5 µg/mL.

Tested on in a further data set: not listed separately
Briefly: Antitumor activity against human KAT4 cells by sulforhodamine B assay. Conditions: KAT-4. The class given is functional.
Consider `COc1cc(/C=C\c2ccc(OC)c(OP(=O)([O-])[O-])c2OP(=O)([O-])[O-])cc2c1OCO2.[K+].[K+].[K+].[K+]`, for which the GI50 worked out at 9.6 µg/mL.

In the case of `COc1cc(/C=C\c2ccc(OC)c(OP(=O)([O-])[O-])c2OP(=O)([O-])[O-])cc(OP(=O)([O-])[O-])c1OC.[Mg+2].[Mg+2].[Mg+2]`, the GI50 is 4.7 µg/mL.

The subject of another data set is SW-1736. Briefly: Antitumor activity against human SW1736 cells by sulforhodamine B assay. The class given is functional.
Details: not given
For the compound `COc1cc(/C=C\c2ccc(OC)c(OP(=O)([O-])[O-])c2OP(=O)([O-])[O-])cc2c1OCO2.[K+].[K+].[K+].[K+]`, the concentration for 50% growth inhibition (GI50) was over 10 µg/mL.

Regarding `COc1cc(/C=C\c2ccc(OC)c(OP(=O)([O-])[O-])c2OP(=O)([O-])[O-])cc(OP(=O)([O-])[O-])c1OC.[Mg+2].[Mg+2].[Mg+2]`, the GI50 was over 10 µg/mL.

Tested on in the next data set: not listed separately
Briefly: Aqueous solubility of compound in water.
Details: not given
The class given is physicochemical.
As for `COc1ccc(/C=C\c2cc(OC)c(OC)c(OC)c2)cc1OP(=O)([O-])[O-].[Na+].[Na+]` [FOSBRETABULIN DISODIUM], the solubility came out at 20 mg/mL.

The test system of the next data set is P388. Description: In vitro growth inhibition against mouse P388 cells.
Details: not given
`COc1cc(/C=C\c2ccc(OC)c(O[Si](C)(C)C(C)(C)C)c2O[Si](C)(C)C(C)(C)C)cc2c1OCO2`: the ED50 was over 10 µg/mL.

In turn, `COc1cc(/C=C\c2ccc(OC)c(OP(=O)([O-])[O-])c2OP(=O)([O-])[O-])cc2c1OCO2.[K+].[K+].[K+].[K+]` displayed an ED50 of 0.17 µg/mL.

For `COc1cc(/C=C\c2ccc(OC)c(OP(=O)([O-])[O-])c2OP(=O)([O-])[O-])cc(OP(=O)([O-])[O-])c1OC.[Mg+2].[Mg+2].[Mg+2]`, the ED50 is 0.064 µg/mL.

Take `COc1ccc(/C=C\c2cc(OC)c(OC)c(OC)c2)cc1OP(=O)([O-])[O-].[Na+].[Na+]` [FOSBRETABULIN DISODIUM]: the ED50 worked out at 0.0029 µg/mL.

In turn, `COc1cc(/C=C\c2ccc(OC)c(OP(=O)([O-])[O-])c2OP(=O)([O-])[O-])cc2c1OCO2.[Na+].[Na+].[Na+].[Na+]` came in with an ED50 of 1.4 µg/mL.

As a reminder, the GI50 is the concentration at which growth is held to half of that of the control. Usually solubility stands for the concentration that dissolves in the medium under given conditions. Read a high solubility as much dissolved substance.
